Experimental data published in patent US20240400591A1 (Jacobio Pharmaceuticals Co., Ltd., priority 2021, published 2024).
Read-outs that look alike come from different tables or passages of the source.

How the values were obtained:
[1] = test system: NUGC3 (P53 Y220C); assay: Cell viability assay (CellTiter-Glo, 6 days), NUGC3; type: cell-based; conditions: Homo sapiens, NUGC-3, 144 h; cell viability, 6 days, CellTiter-Glo; read-out: NUGC3 (P53 Y220C) IC50
Description: (§1) Cells were collected and counted. A desired number of cells was seeded into 96-well microplate and cultured in 37° C. cell incubator overnight. Compounds dissolved in cell culture medium were added into cell plate and cultured for 6 days. After balancing CellTiter-Glo reagent and cells at room temperature for 30 min, equal volume of CellTiter-Glo reagents was added to assay plate and shaken for 2 min for cell lysis. The cells were balanced at room temperature for 10 minutes and Luminescence signal was read using Envision. The percent of cell viability for compounds treated wells were normalized between High control and low control. Wells containing cell culture medium and same percentage DMSO sewved as Low control. Wells containing cells and same percentage DMSO sewved as High control. Cell viability (%)=(Luminescence readoutCompound treated−Luminescence readoutLow control)/(Luminescence readoutHigh control−Luminescence readoutLow control)*100%. Then the data were analyzed either by fitting a 4-parameter logistic model or by Excel to calculate IC50 values. And the IC50 was the concentration at 50% Cell viability on the curve.

[2] = target: T1, His-p53 Y220C (94-294) protein (Homo sapiens, UniProt P04637, Y220C); assay: In vitro DNA binding assay (HTRF); type: biochemical; conditions: % activation normalized to 2 μM Ref-1a high control
T1 construct: His-p53 Y220C (94-294) protein

[3] = test system: NUGC-3_P53_Luc single clonal cell line (p53 Y220C); assay: Reporter gene assay (p53 RE luciferase); type: cell-based; conditions: Homo sapiens, luciferase reporter, 6 hours, normalized to Ref-1a (10 μM) high control, read-out: p53(Y220C)_NUGC-3 EC50
Description: NUGC-3_P53_Luc single clonal cell line was established using pGL4.38[luc2P/p53 RE/Hygro] Vector (E365A, promega). NUGC-3_P53-Luc single clonal cells were cultured in 37° C. cell incubator before use. NUGC-3-P53-Luc cells were collected and washed twice with PBS to remove phenol red and then resuspended in medium to a proper concentration. Tested compound dilutions were transferred into 384 well assay plates (PerkinElmer). A desired number of cells was seeded into the assay plate and cultured for 6 hours at 37° C. cell incubator. Britelite plus Luciferase Assay Reagent were added into each well and the luminescence value was recorded on Envision. The percent of activity value of compounds treated wells was normalized between high control and low control. Wells containing cells and Ref-1a (10 μM) sewved as high control, and wells containing cells and same percentage of DMSO sewved as low control. Activity value (%)=(Luminescence readoutCompound treated−Luminescence readoutLow control)/(Luminescence readoutHigh control−Luminescence readoutLow control)*100%. Then the data were analyzed either by fitting a 4-parameter logistic model or by Excel to calculate EC50 values and the EC50 was the concentration at 50% Activity on the curve.

[4] = test system: NUGC4 (P53 WT); assay: Cell viability assay (CellTiter-Glo, 6 days), NUGC4; type: cell-based; conditions: Homo sapiens, NUGC-4, 144 h; cell viability, 6 days, CellTiter-Glo; read-out: NUGC4 (P53 WT) IC50
Description: as §1

| SMILES | IC50 [1] [µM] | EC50 [2] [µM] | EC50 ([3]; NUGC-3) [µM] | IC50 [4] [µM] | EC50 ([3]; NUGC-3, 6 h) [µM] |
| --- | --- | --- | --- | --- | --- |
| COc1cc(P(C)(C)=O)ccc1NCC#Cc1sc2c(NC3CCN(C)CC34CC4)cccc2c1CC(F)(F)F (centres unmarked) [Example 89, (3-methoxy-4-((3-(7-((5-methyl-5-azaspiro[2.5]octan-8-yl)amino)-3-(2,2,2-trifluoroethyl)benzo[b]thiophen-2-yl)prop-2-yn-1-yl)amino)phenyl)dimethylphosphine oxide] | 0.82 | 0.053 | 0.23 | 4.54 | – |
| CNC(=O)c1ccc(NCC#Cc2cc3c(N[C@@H]4CCN(C)C[C@@H]4F)cccc3n2CC(F)(F)F)c(OC)c1 [Example 57, 4-((3-(4-(((Z)-3-fluoro-1-methylpiperidin-4-yl)amino)-1-(2,2,2-trifluoroethyl)-1H-indol-2-yl)prop-2-yn-1-yl)amino)-3-methoxy-N-methylbenzamide] | 1.11 | 0.029 | 0.08 | 12 | – |
| CN1CC[C@@H](Nc2cccc3c(CC(F)(F)F)c(C#CCNc4ccc(P(C)(C)=O)cc4S(C)(=O)=O)sc23)[C@@H](F)C1 [Example 175, (4-((3-(7-(((3S,4R)-3-fluoro-1-methylpiperidin-4-yl)amino)-3-(2,2,2-trifluoroethyl)benzo[b]thiophen-2-yl)prop-2-yn-1-yl)amino)-3-(methylsulfonyl)phenyl)dimethylphosphine oxide] | 3.55 | 0.066 | 0.64 | 35.2 | – |
| COc1cc(P(C)(C)=O)ccc1NCC#Cc1sc2c(NC3[C@@H]4COC[C@H]3CN(C)C4)cccc2c1CC(F)(F)F (single isomer, unassigned) [Example 197] | 0.39 | 0.026 | 0.12 | 11.5 | – |
| CNC(=O)c1cc(NCC#Cc2sc3c(N[C@@H]4CCN(C5CCOCC5)C[C@@H]4F)cccc3c2CC(F)(F)F)c(OC)cc1P(C)(C)=O [Example 160, 2-dimethylphosphoryl-5-[3-[7-[[(3S,4R)-3-fluoro-1-tetrahydropyran-4-yl-4-piperidyl]amino]-3-(2,2,2-trifluoroethyl)benzothiophen-2-yl]prop-2-ynylamino]-4-methoxy-N-methyl-benzamide] | 1.41 | 0.041 | 0.19 | > 50 | – |
| COc1cc(P(C)(C)=O)ccc1NCC#Cc1sc2c(N[C@@H]3CCN(C4CCOC4)C[C@@H]3F)cccc2c1CC(F)(F)F (stereo partly drawn) [Example 157, (4-((3-(7-(((3S,4R)-3-fluoro-1-(tetrahydrofuran-3-yl)piperidin-4-yl)amino)-3-(2,2,2-trifluoroethyl)benzo[b]thiophen-2-yl)prop-2-yn-1-yl)amino)-3-methoxyphenyl)dimethylphosphine oxide] | 0.53 | 0.068 | 0.11 | 4.84 | – |
| COc1cc(P(C)(C)=O)ccc1NCC#Cc1sc2c(N[C@@H]3CCN(C)C[C@@H]3C)cccc2c1CC(F)(F)F [Example 126, (4-((3-(7-(((3S,4R)-1,3-dimethylpiperidin-4-yl)amino)-3-(2,2,2-trifluoroethyl)benzo[b]thiophen-2-yl)prop-2-yn-1-yl)amino)-3-methoxyphenyl)dimethylphosphine oxide] | 0.63 | 0.036 | – | 2.74 | 0.08 |
| COc1cc(P(C)(C)=O)ccc1NCC#Cc1sc2c(N[C@@H]3CCN(C4CC4)C[C@@H]3F)cccc2c1CC(F)(F)F (racemic) [Example 74, (4-((3-(7-(((Z)-1-cyclopropyl-3-fluoropiperidin-4-yl)amino)-3-(2,2,2-trifluoroethyl)benzo[b]thiophen-2-yl)prop-2-yn-1-yl)amino)-3-methoxyphenyl)dimethylphosphine oxide] | 2.05 | 0.127 | 0.25 | 2.73 | – |
| CN1CC[C@@H](Nc2cccc3c(CC(F)(F)F)c(C#CCNc4ccc(P(C)(C)=O)c5c4OCCO5)sc23)[C@@H](F)C1 [Example 193, (8-((3-(7-(((3S,4R)-3-fluoro-1-methylpiperidin-4-yl)amino)-3-(2,2,2-trifluoroethyl)benzo[b]thiophen-2-yl)prop-2-yn-1-yl)amino)-2,3-dihydrobenzo[b][1,4]dioxin-5-yl)dimethylphosphine oxide] | 1.22 | 0.113 | 0.13 | 18.6 | – |
| CP(C)(=O)c1ccc(NCC#Cc2sc3c(N[C@@H]4CCN(C5CCOCC5)C[C@@H]4F)cccc3c2CC(F)(F)F)c(OC2CC2)c1 [Example 161, (3-cyclopropoxy-4-((3-(7-(((3S,4R)-3-fluoro-1-(tetrahydro-2H-pyran-4-yl)piperidin-4-yl)amino)-3-(2,2,2-trifluoroethyl)benzo[b]thiophen-2-yl)prop-2-yn-1-yl)amino)phenyl)dimethylphosphine oxide] | 1.15 | 0.073 | 0.12 | 12.9 | – |
| COc1cc(P(C)(C)=O)ccc1NCC#Cc1sc2c(NC3[C@@H]4COC[C@H]3CN(C)C4)cccc2c1CC(F)(F)F (single isomer, unassigned) [Example 196] | 6.71 | 0.067 | – | 18.6 | 0.66 |
| [2H]C([2H])([2H])N1CC[C@@H](Nc2cccc3c(CC(F)(F)F)c(C#CCNc4ccc(P(C)(C)=O)cc4OC)sc23)[C@@H](F)C1 [Example 210, (4-((3-(7-(((3S,4R)-3-fluoro-1-(methyl-d3)piperidin-4-yl)amino)-3-(2,2,2-trifluoroethyl)benzo[b]thiophen-2-yl)prop-2-yn-1-yl)amino)-3-methoxyphenyl)dimethylphosphine oxide] | 1.28 | 0.016 | 0.03 | 12 | – |
| COc1cc(P(C)(C)=O)ccc1NCC#Cc1sc2c(N[C@@H]3CCN(C)C[C@H]3C)cccc2c1CC(F)(F)F [Example 128, (4-((3-(7-(((3R,4R)-1,3-dimethylpiperidin-4-yl)amino)-3-(2,2,2-trifluoroethyl)benzo[b]thiophen-2-yl)prop-2-yn-1-yl)amino)-3-methoxyphenyl)dimethylphosphine oxide] | 0.87 | 0.053 | – | 2.26 | 0.1 |
| CCN1CC[C@@H](Nc2cccc3c(CC(F)(F)F)c(C#CCNc4ccc(P(C)(C)=O)cc4OC)sc23)[C@@H](F)C1 [Example 135, (4-((3-(7-(((3S,4R)-1-ethyl-3-fluoropiperidin-4-yl)amino)-3-(2,2,2-trifluoroethyl)benzo[b]thiophen-2-yl)prop-2-yn-1-yl)amino)-3-methoxyphenyl)dimethylphosphine oxide] | 1.16 | 0.026 | – | 3.62 | 0.04 |
| COc1cc(P(C)(C)=O)ccc1NCC#Cc1sc2c(N[C@@H]3CCN(C4CC5CCC(C4)O5)C[C@@H]3F)cccc2c1CC(F)(F)F (stereo partly drawn) [Example 180, (4-((3-(7-(((3S,4R)-1-(8-oxabicyclo[3.2.1]octan-3-yl)-3-fluoropiperidin-4-yl)amino)-3-(2,2,2-trifluoroethyl)benzo[b]thiophen-2-yl)prop-2-yn-1-yl)amino)-3-methoxyphenyl)dimethylphosphine oxide] | 0.91 | 0.05 | 0.11 | 5.89 | – |
| COCCNC(=O)c1ccc(NCC#Cc2sc3c(N[C@@H]4CCN(C)C[C@@H]4F)cccc3c2CC(F)(F)F)c(OC)c1 (relative stereo) [Example 85, 4-((3-(7-(((Z)-3-fluoro-1-methylpiperidin-4-yl)amino)-3-(2,2,2-trifluoroethyl)benzo[b]thiophen-2-yl)prop-2-yn-1-yl)amino)-3-methoxy-N-(2-methoxyethyl)benzamide] | 1.54 | 0.075 | 0.22 | 8.24 | – |
| CN1CC[C@@H](Nc2cccc3c(CC(F)(F)F)c(C#CCNc4ccc(P(C)(C)=O)cc4Cl)sc23)[C@@H](F)C1 (racemic) [Example 83, (3-chloro-4-((3-(7-(((Z)-3-fluoro-1-methylpiperidin-4-yl)amino)-3-(2,2,2-trifluoroethyl)benzo[b]thiophen-2-yl)prop-2-yn-1-yl)amino)phenyl)dimethylphosphine oxide] | 1.31 | 0.04 | – | 7.96 | 0.21 |
